ChEMBL document CHEMBL2157958, “4-Isoxazolyl-1,4-dihydropyridines exhibit binding at the multidrug-resistance transporter” (Bioorg Med Chem, 2012)

Assays:
[1] = biological target: MDR1 (P-glycoprotein, ABCB1) (Homo sapiens, UniProt P08183); assay: Inhibition of MDR1 in human Caco2 cells assessed as calcein accumulation after 30 mins by fluorescence assay; type: cell-based; parameters: concentration or dose not given beside the values; conditions: Caco-2 cells
[2] = Binding affinity at VGCC
[3] = Binding affinity at VGCC by patch clamp method

MDR1 (P-glycoprotein, ABCB1), sequence (P08183 whole entry): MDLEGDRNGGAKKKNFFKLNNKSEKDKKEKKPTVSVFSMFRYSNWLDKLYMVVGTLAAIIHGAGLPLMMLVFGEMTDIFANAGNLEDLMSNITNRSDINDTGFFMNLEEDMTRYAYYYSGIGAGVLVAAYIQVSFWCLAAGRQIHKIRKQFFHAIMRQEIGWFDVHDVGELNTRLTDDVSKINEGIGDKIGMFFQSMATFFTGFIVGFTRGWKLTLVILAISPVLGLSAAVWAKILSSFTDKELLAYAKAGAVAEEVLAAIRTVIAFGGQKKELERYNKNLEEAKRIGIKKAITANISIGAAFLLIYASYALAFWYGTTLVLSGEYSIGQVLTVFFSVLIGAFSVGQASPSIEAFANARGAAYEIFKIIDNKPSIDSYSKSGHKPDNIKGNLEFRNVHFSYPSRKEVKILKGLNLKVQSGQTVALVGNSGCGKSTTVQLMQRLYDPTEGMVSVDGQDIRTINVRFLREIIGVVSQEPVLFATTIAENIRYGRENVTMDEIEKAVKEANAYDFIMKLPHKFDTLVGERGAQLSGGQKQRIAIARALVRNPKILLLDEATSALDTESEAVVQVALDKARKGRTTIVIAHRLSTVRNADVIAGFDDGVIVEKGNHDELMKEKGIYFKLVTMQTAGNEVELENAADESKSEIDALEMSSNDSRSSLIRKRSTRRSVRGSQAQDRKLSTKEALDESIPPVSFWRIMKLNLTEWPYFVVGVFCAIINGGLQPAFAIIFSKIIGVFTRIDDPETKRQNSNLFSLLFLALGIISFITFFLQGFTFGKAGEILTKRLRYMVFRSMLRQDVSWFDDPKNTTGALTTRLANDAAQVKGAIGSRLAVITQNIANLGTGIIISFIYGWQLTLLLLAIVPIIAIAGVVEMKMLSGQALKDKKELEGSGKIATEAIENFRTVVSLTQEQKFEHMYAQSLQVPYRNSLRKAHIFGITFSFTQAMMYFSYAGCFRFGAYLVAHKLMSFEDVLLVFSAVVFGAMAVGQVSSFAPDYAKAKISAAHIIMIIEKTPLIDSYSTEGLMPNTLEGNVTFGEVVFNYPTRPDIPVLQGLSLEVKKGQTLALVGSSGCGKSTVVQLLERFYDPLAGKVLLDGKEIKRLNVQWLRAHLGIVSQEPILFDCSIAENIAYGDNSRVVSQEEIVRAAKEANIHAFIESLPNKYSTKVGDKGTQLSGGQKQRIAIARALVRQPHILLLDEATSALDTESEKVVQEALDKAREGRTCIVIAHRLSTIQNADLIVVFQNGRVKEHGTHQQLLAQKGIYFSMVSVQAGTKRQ

SMILES	inhibition at 0.5 h [1] [%]	Ki [2] [µM]	Activity [3] [µM]
CCOC(=O)C1=C(C)N=C(C)/C(=C(/O)OCC)C1c1c(-c2ccc(Cl)cc2)noc1C (stereo unspecified)	11.7	–	–
CCOC(=O)C1=C(C)N=C(C)/C(=C(/O)OCC)C1c1c(-c2cccc(Cl)c2)noc1C (stereo unspecified)	26.8	–	1.98
CCOC(=O)C1=C(C)N=C(C)/C(=C(/O)OCC)C1c1c(-c2ccccc2Cl)noc1C (stereo unspecified)	10.9	–	9.68
CCOC(=O)C1=C(C)N=C(C)/C(=C(/O)OCC)C1c1c(-c2cc(Cl)ccc2OC)noc1C (stereo unspecified)	15	–	6.86
CCOC(=O)C1=C(C)NC(C)=C(C(=O)OCC)C1c1c(C)noc1C(C)Cc1cccc(Br)c1 (racemic)	61.2	–	–
CCOC(=O)C1=C(C)N=C(C)/C(=C(/O)OCC)C1c1c(-c2ccccc2)noc1C(C)C (stereo unspecified)	38.4	–	–
CCOC(=O)C1=C(C)N=C(C)/C(=C(/O)OCC)C1c1c(-c2ccccc2OC)noc1C (stereo unspecified)	32.8	–	17.1
CCOC(=O)C1=C(C)NC(C)=C(C(=O)OCC)C1c1c(C)noc1C(C)Cc1cccc2ccccc12 (stereo unspecified)	38.3	–	–

Now from value to compound:

inhibition at 0.5 h [1] [%]	Ki [2] [µM]	Activity [3] [µM]	SMILES
18.6	0.00869	–	CCOC(=O)C1=C(C)N=C(C)/C(=C(/O)OCC)C1c1c(C)noc1CCc1ccc(-c2ccccc2)cc1 (stereo unspecified)
27.6	0.0553	–	CCOC(=O)C1=C(C)N=C(C)/C(=C(/O)OCC)C1c1c(-c2ccccc2)noc1CCc1ccccc1 (stereo unspecified)
19	0.0041	0.47	CCOC(=O)C1=C(C)N=C(C)/C(=C(/O)OCC)C1c1c(C)noc1CCc1cccc2ccccc12 (stereo unspecified)
48.9	0.0139	–	CCOC(=O)C1=C(C)N=C(C)/C(=C(/O)OCC)C1c1c(-c2ccccc2)noc1C (stereo unspecified)
